A short description of the data set: xn = mol fraction of the nth substance listed. The following applies: 300 K, 101 kPa.

Turning to `CCCCCCCCCCCCCCCC[P+](CCCC)(CCCC)CCCC.[Br-]` + O, the electrical conductivity is, setting by setting: (x2 = 0.201) 0.0004 S/m; (x2 = 0.302) 0.0004 S/m; (x2 = 0.502) 0.0004 S/m; (x2 = 0.603) 0.0004 S/m; (x2 = 0.802) 0.0004 S/m.

For `CCCCCCCCCCCCCCCC[P+](c1ccccc1)(c1ccccc1)c1ccccc1.[Br-]` + O, the electrical conductivity (x2 = 0.198) was 0.0003 S/m, the electrical conductivity (x2 = 0.498) is 0.0003 S/m and the electrical conductivity (x2 = 0.598) is 0.0004 S/m.

For the compound `[Br-].[PH3+]CCCCCCCCCCCCCC(c1ccccc1)(c1ccccc1)c1ccccc1` + O, the electrical conductivity was 0.002 S/m (x2 = 0.503) and 0.0006 S/m (x2 = 0.603).

The values are drawn from a compilation of properties of binary mixtures (doi:10.1021/je100113r).
